Measured values: PMC4016962 (Molecules, 2014)

What follows are compounds tested against T1, B. anthracis DHFR (Bacillus anthracis, UniProt Q81R22) (assay: biochemical).
T1 construct: gene dfrA
T1 sequence (Q81R22 1-162): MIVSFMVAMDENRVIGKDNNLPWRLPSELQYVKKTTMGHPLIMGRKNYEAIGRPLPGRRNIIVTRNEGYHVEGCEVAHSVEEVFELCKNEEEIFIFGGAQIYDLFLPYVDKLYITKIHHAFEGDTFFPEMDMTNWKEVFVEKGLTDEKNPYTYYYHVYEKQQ

`CCCCC1c2ccccc2C=NN1C(=O)/C=C/c1cc(Cc2cnc(N)nc2N)cc(OC)c1OC` (racemic) [6c, (±)-(E)-1-(1-n-Butylphthalazin-2(1H)-yl)-3-(5-((2,4-diaminopyrimidin-5-yl)methyl)-2,3-dimethoxyphenyl)prop-2-en-1-one] and `CCC1c2ccccc2C=NN1C(=O)/C=C/c1cc(Cc2cnc(N)nc2N)cc(OC)c1OC` (racemic) [6b, (±)-(E)-3-(5-((2,4-Diaminopyrimidin-5-yl)methyl)-2,3-dimethoxyphenyl)-1-(1-ethylphthalazin-2(1H)-yl)prop-2-en-1-one] are within 1.5-fold of each other in Ki: 7.9 ± 0.2 nM for the first, 6.8 ± 0.2 nM for the second.

First: COc1cc(Cc2cnc(N)nc2N)cc(/C=C/C(=O)N2N=Cc3ccccc3C2CC(=O)OC(C)(C)C)c1OC (racemic) [11a, t-Butyl (±)-(E)-2-(2-(3-(5-((2,4-Diaminopyrimidin-5-yl)methyl)-2,3-dimethoxyphenyl)acryloyl)-phthal-azin-2(1H)-yl)acetate]
Second: COC(=O)CC1c2ccccc2C=NN1C(=O)/C=C/c1cc(Cc2cnc(N)nc2N)cc(OC)c1OC (racemic) [11c, Methyl (±)-(E)-2-(2-(3-(5-((2,4-Diaminopyrimidin-5-yl)methyl)-2,3-dimethoxyphenyl)acryloyl)-phthal-azin-2(1H)-yl)acetate]
The Ki of the first is 3-fold higher: 59 ± 0.9 nM for the first, 20 ± 0.3 nM for the second. The second binds more tightly here.

`COc1cc(Cc2cnc(N)nc2N)cc(/C=C/C(=O)N2N=Cc3ccccc3C2c2cccs2)c1OC` (racemic) [6g, (±)-(E)-3-(5-((2,4-Diaminopyrimidin-5-yl)methyl)-2,3-dimethoxyphenyl)-1-(1-(thiophen-2-yl)-phthalazin-2(1H)-yl)prop-2-en-1-one] and `COc1cc(Cc2cnc(N)nc2N)cc(/C=C/C(=O)N2N=Cc3ccccc3C2c2ccco2)c1OC` (racemic) [6f, (±)-(E)-3-(5-((2,4-Diaminopyrimidin-5-yl)methyl)-2,3-dimethoxyphenyl)-1-(1-(furan-2-yl)phthalazin-2(1H)-yl)prop-2-en-1-one] are within 1.5-fold of each other in Ki: 8.4 ± 0.2 nM for the first, 5.9 ± 0.2 nM for the second.

Compared with `COc1cc(Cc2cnc(N)nc2N)cc(/C=C/C(=O)N2N=Cc3ccccc3C2C2CC2)c1OC` (racemic) [6e, (±)-(E)-1-(1-Cyclopropylphthalazin-2(1H)-yl)-3-(5-((2,4-diaminopyrimidin-5-yl)methyl)-2,3-dimethoxyphenyl)prop-2-en-1-one], `COc1cc(Cc2cnc(N)nc2N)cc(/C=C/C(=O)N2N=Cc3ccccc3C2C)c1OC` (racemic) [6a, (±)-(E)-3-(5-((2,4-Diaminopyrimidin-5-yl)methyl)-2,3-dimethoxyphenyl)-1-(1-methylphthalazin-2(1H)-yl)prop-2-en-1-one] is 1.8-fold higher in Ki: 4.9 ± 0.2 nM for the first, 8.8 ± 0.2 nM for the second. The first binds more tightly here.

First: CCOC(=O)CC1c2ccccc2C=NN1C(=O)/C=C/c1cc(Cc2cnc(N)nc2N)cc(OC)c1OC (racemic) [11b, Ethyl (±)-(E)-2-(2-(3-(5-((2,4-Diaminopyrimidin-5-yl)methyl)-(2,3-dimethoxyphenyl)acryloyl)-phthal-azin-2(1H)-yl)acetate]
Second: CCC(C)C1c2ccccc2C=NN1C(=O)/C=C/c1cc(Cc2cnc(N)nc2N)cc(OC)c1OC (racemic) [6d, (±)-(E)-1-(1-s-Butylphthalazin-2(1H)-yl)-3-(5-((2,4-diaminopyrimidin-5-yl)methyl)-2,3-dimethoxyphenyl)prop-2-en-1-one]
The Ki of the first is 2.4-fold higher: 24.9 ± 0.3 nM for the first, 10.4 ± 0.2 nM for the second.

In the case of `COc1cc(Cc2cnc(N)nc2N)cc(/C=C/C(=O)N2N=Cc3ccccc3C2c2ccccn2)c1OC` (racemic) [6h, (±)-(E)-3-(5-((2,4-Diaminopyrimidin-5-yl)methyl)-2,3-dimethoxyphenyl)-1-(1-(pyridin-2-yl)phthalazin-2(1H)-yl)prop-2-en-1-one], the Ki is reported as 9 ± 0.2 nM.
